Results as given in US20250223306A1, “TEAD INHIBITORS AND METHODS OF USE” (Sporos BioDiscovery, Inc., priority 2022, published 2025).

Tested on: NCI-H226 xenograft
Experiment: Inhibition of mouse xenograft NCI-H226 tumors
Format: in vivo, BALB/c nude mice
Settings: Day 27, p.o., QD
Excerpt: This study evaluated the in vivo therapeutic efficacy of TEAD inhibitors in the treatment of the subcutaneous lung cancer NCI-H226 xenograft model in female BALB/c nude mice.
• ANOVA Analysis of variance • BW Body weight • BWL Body weight loss • FFPE Formalin fixed paraffin embedded • IACUC Institutional animal care and use committee • MTV Mean tumor volume • N/A Not available or not applicable • p.o. Oral (ly) • QD Once a day • REG REG=[(T0−Ti)/T0]×100%; • Ti as the mean tumor volume of the treatment group on the measurement day; • T0 as the mean tumor volume of the treatment group on Day 0. • ROA Route of administration • RT Room temperature • RTV Relative tumor volume • SD Standard deviation • SEM Standard error of mean • SOC Standard of care used in clinical setting for a specific disease • TBD To be determined • T/C The Ti/Ci value (%): T/C %=Ti/Ci×100; • Ti and Ci are the mean tumor volumes of the treatment and control groups, respectively, on a given day. • TGI Tumor growth inhibition; TGI %=(1−Ti/Ci)×100; • Ti and Ci are the mean tumor volumes of the treatment and control groups, respectively, on a given day. • TV Tumor volume • PK/PD Pharmacokinetics/Pharmacodynamics • ΔInhibition Mean % ΔInhibition=((Ci−C0)−(Ti−T0))/(Ci−C0)*100% • Ti and Ci are the mean tumor volumes of the treatment and control groups, respectively, on a given day. T0 and C0 as the mean tumor volumes of the treatment and vehicle groups on Day 0.
• Species Mus musculus • Strain Balb/c nude • Supplier GemPharmatech Co., Ltd • Gender Female • No. of Animals Ordered 68 (45 plus 23 spare) • No. of Animals Assigned 45 • to Study • Average Age of Animals 6-8 weeks • at Study Initiation
The NCI-H226 cells (CL-00364) cancer cells were maintained in vitro with RPMI1640 medium supplemented with 10% fetal bovine serum at 37° C. in an atmosphere of 5% CO2 in the air. The cells in exponential growth phase were harvested and quantitated by cell counter before tumor inoculation.
Each mouse was inoculated subcutaneously in the right front flank region with NCI-H226 tumor cells (1×10^7) in 0.2 ml of PBS mixed with Matrigel (1:1) for tumor development.
The randomization was performed when the mean tumor size reached 138.81 mm^3. 45 mice were enrolled in the study. All animals were randomly allocated to 9 study groups, 5 mice in each group. Randomization was performed based on “Matched distribution” method/“Stratified” method (StudyDirector™ software, version 3.1.399.19)/randomized block design. The date of randomization was denoted as day 0.
The treatment was initiated on the same day of randomization (day 0) per study design.
After tumor cells inoculation, the animals were checked daily for morbidity and mortality. During routine monitoring, the animals were checked for any effects of tumor growth and treatments on behavior such as mobility, food and water consumption, body weight gain/loss (Body weights were measured twice per week after randomization), eye/hair matting and any other abnormalities. Mortality and observed clinical signs were recorded for individual animals in detail.
Tumor volumes were measured twice per week after randomization in two dimensions using a caliper, and the volume was expressed in mm^3 using the formula: “V=(L×W×W)/2, where V is tumor volume, L is tumor length (the longest tumor dimension) and W is tumor width (the longest tumor dimension perpendicular to L). Dosing as well as tumor and body weight measurements were conducted in a Laminar Flow Cabinet.
To compare tumor volumes of different groups at a pre-specified day, Bartlett's test was first used to check the assumption of homogeneity of variance across all groups. When the p-value of Bartlett's test was >=0.05, one-way ANOVA was performed to test overall equality of means across all groups. […]

SMILES: C[C@H](NC(=O)c1cnc2c(C3=CCC(C(F)(F)F)CC3)cccc2c1)c1ccccn1 (stereo partly drawn) [Compound 2, N—((S)-1-(pyridin-2-yl)ethyl)-8-(4-(trifluoromethyl)cyclohex-1-en-1-yl)quinoline-3-carboxamide]
- T/C (3 mg/kg): 64.62%
- TGI (3 mg/kg): 35.38%
- Tumor Volume (mean ± SEM) (3 mg/kg): 345.21 ± 85.33 mm^3
- T/C (10 mg/kg): 45.64%
- TGI (10 mg/kg): 54.36%
- Tumor Volume (mean ± SEM) (10 mg/kg): 243.78 ± 74.70 mm^3
- T/C (25 mg/kg): 19.66%
- TGI (25 mg/kg): 80.34%
- Tumor Volume (mean ± SEM) (25 mg/kg): 105.03 ± 13.17 mm^3

SMILES: O=C(NCc1ncco1)c1cnc2c(C3=CCC(C(F)(F)F)CC3)cccc2c1 (stereo not drawn) [Compound 11, N-(oxazol-2-ylmethyl)-8-(4-(trifluoromethyl)cyclohex-1-en-1-yl)quinoline-3-carboxamide]
- T/C (3 mg/kg): 89.83%
- TGI (3 mg/kg): 10.17%
- Tumor Volume (mean ± SEM) (3 mg/kg): 479.84 ± 96.60 mm^3
- T/C (10 mg/kg): 36.49%
- TGI (10 mg/kg): 63.51%
- Tumor Volume (mean ± SEM) (10 mg/kg): 194.94 ± 42.44 mm^3
- T/C (25 mg/kg): 21.10%
- TGI (25 mg/kg): 78.90%
- Tumor Volume (mean ± SEM) (25 mg/kg): 112.73 ± 17.20 mm^3
